Experimental data published in patent US7145032B2, “Therapeutic malonic acid/acetic acid C60 tri-adducts of buckminsterfullerene and methods related thereto” (priority 2002, dated 2006).

Columns and labels:
[1] = test system: rats; settings: treatment from age 96 weeks to end of life; control 147+/−1; cited from earlier work
[2] = test system: C57B6 mice; settings: chronic treatment starting at 18 months of age; cited from earlier work
[3] = test system: Fisher 344 rats; settings: cited from earlier work
[4] = test system: Fisher 344 rats; settings: same dose of deprenyl; cited from earlier work
[5] = test system: Drosophila; settings: controlled study; cited from earlier work
[6] = test system: monkeys; settings: one monkey; mean survival 25 months; cited from earlier work
[7] = test system: C57B6 mice; type: in vivo; settings: oral C3 from 12 months of age to end of life, versus control
Protocol: The date of spontaneous death for each mouse was recorded, and used to calculate the lifespan. Lifespan of each mouse was calculated in months because mice received from the NIA rodent colony have their birth month, but not their specific birth date, recorded. Average survival was calculated for each treatment and the mean lifespans were compared using a t-test with significance set to p<0.05 (actual p=0.033).
Twelve month old C57B6NIH male and female mice (equal numbers) were purchased from the National Institute on Aging (NIA) Aging Rodent Colony. Mice shipped from this colony were not selected in any way for health, tumors or other disabilities, and all mice obtained from the colony were subsequently enrolled in the study. […]
Solution A or solution B was placed in the water bottles, and solutions were topped-off twice weekly, and filtered to remove any particulates biweekly by an individual blind to the identity of the solutions. […] Mice were allowed to die spontaneously, and their date of death were recorded by the Animal Housing Facility staff as part of the normal operating procedure of the facility. […] When animals died, the cage number, identity of the animal, and the date of death were recorded on the death notice, which was then sent to the laboratory, where the information was entered into the database.

[8] = Solubility; type: physicochemical
Text: The progress of the reaction was monitored by HPLC (Protocol 2).

[9] = Thermal stability in 1:1 acetonitrile:water at 60°; type: physicochemical; settings: for Hexa, percent of injected compound (HPLC): 60° C.
Text: The composition was monitored by HPLC, using protocols 2 and 4 (see Table 1).

[10] = Plasma pharmacokinetics and tissue distribution in mice
Text: The above dosing information is based on a pharmokinetics study carried out in mice, toxicity testing in mice and toxicity testing in rats.

[11] = Hydration of freeze dried sodium salt; type: physicochemical; settings: dry weight divided by expected weight for complete neutralization; freeze dried 4 days
[12] = Reactivity of C3 with superoxide; type: biochemical; settings: calculated
Text: Because many important biological reactions generate reactive oxygen species intentionally, or as unwanted toxic by-products, antioxidant molecules capable of supplementing the antioxidant defenses of cells as potential therapeutic agents are therapeutically useful. […] These novel carboxyfullerene compositions have antioxidant properties.

## C#CCN(C)[C@H](C)Cc1ccccc1 [deprenyl]
[1]
  lifespan of treated rats: 198+/−2 weeks
[2]
  survival benefit: failed to show any survival benefit
[3]; not statistically significant
  increase in longevity: 7%
[3]; treatment from 18 months of age, controls 28 months
  mean survival of treated animals: 30 months
[4]
  effect on mortality and lifespan: greater mortality and shortened lifespan
[5]
  effect on lifespan: did not show an increase in lifespan

## O=CC[C@@H](O)[C@H](O)[C@H](O)CO [2-deoxyglucose]
[6]
  survival of a treated monkey: 38 months

## e,e,e tris malonic acid C60 [Compound C3]
[7]
  increase in the lifespan: approximately 20%
[8]; calculated for the acid, unit not printed for this column (neighbour: mg/ml)
  Solubility Sodium salt: >450^6
[8]; uv of liquid portion of a saturated solution
  Solubility Water: >454^6 mg/ml
[9]; 60°
  Thermal Stability # of products: 10
[9]; incubation 5.5 h
  Hexa, percent of injected compound (HPLC): 2.6%
[9]; incubation […]
  Hexa, percent of injected compound (HPLC): 9.2%
[9]; incubation […], 97.4% at 0 h
  Hexa, percent of injected compound (HPLC): 40.5%
[10]
  route of clearance: excretion through both the liver and kidney
[10]; various times after ip administration
  tissue levels / distribution: accumulation through the liver and kidney
[11]
  Hydration of Na salt: 1.31
[12]
  rate constant of C3 reaction with superoxide: 3e+06 M⁻¹ s⁻¹
